These results are taken from patent US5852210A, “Cinnamic acid derivatives” (G. D. Searle & Co., priority 1997, dated 1998).

SMILES strings stand for the structures. Where a name gives a salt, the structure may show the parent alone.

Assay [1] addresses T1, Human vitronectin receptor (αv β3) (Homo sapiens, UniProt P05106+P06756).
T1 construct: Human vitronectin receptor (αv β3) was purified from human placenta; from tissue; host or cells: human placenta
The experiment in a line: Vitronectin adhesion assay (solid phase receptor assay, αvβ3). It is filed as binding. The conditions noted are these: inhibition of binding of biotinylated human vitronectin (1 nM) to purified receptor; Table I; read-out: AvB3 IC50. Put shortly:
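Placental αvβ3 (100 ng/well) coated in TBS with 1 mM Ca, Mg, Mn, pH 7.4, then compound competed with 1 nM biotinylated vitronectin for 2 h at room temperature (top compound concentration 1.0×10^-4 M). Bound ligand detected with HRP anti-biotin/OPD at 450 nm; values normalized to maximum binding, four-parameter curve fit.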

The target in assay [2] is T2, Human fibrinogen receptor (αIIb β3) (Homo sapiens, UniProt P05106+P08514).
T2 construct: Human fibrinogen receptor (αIIb β3) was purified from outdated platelets; from tissue; host or cells: human outdated platelets
T2 sequence (P08514 32-887 limits assumed): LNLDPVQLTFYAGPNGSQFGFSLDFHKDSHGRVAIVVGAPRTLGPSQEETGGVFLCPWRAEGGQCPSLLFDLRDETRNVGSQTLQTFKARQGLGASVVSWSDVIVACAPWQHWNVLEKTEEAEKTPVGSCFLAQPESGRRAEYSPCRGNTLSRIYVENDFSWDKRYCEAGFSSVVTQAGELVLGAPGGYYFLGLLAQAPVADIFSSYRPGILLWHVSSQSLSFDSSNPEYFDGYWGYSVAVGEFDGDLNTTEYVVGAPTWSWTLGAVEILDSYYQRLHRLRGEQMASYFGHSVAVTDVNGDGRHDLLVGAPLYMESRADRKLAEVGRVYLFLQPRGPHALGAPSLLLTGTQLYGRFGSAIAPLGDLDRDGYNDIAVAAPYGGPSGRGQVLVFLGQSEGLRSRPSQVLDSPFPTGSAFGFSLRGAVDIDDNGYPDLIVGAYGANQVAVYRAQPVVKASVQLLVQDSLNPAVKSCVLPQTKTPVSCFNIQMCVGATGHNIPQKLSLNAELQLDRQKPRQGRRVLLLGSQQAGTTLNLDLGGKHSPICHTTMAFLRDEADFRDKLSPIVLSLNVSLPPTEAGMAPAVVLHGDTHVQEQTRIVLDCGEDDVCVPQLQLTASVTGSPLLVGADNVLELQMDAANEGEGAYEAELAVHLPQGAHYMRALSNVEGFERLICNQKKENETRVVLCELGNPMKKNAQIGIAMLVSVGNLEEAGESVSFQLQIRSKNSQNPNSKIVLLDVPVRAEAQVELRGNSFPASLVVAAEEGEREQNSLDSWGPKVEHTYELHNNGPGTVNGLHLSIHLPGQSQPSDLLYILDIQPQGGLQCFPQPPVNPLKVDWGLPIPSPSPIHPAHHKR
T2 sequence (P08514 891-1039 limits assumed): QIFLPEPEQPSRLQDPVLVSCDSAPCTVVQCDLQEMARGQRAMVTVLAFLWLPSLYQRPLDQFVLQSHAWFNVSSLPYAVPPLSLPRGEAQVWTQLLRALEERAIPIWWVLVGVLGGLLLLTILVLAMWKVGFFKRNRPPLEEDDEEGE
T2 sequence (P05106 27-788): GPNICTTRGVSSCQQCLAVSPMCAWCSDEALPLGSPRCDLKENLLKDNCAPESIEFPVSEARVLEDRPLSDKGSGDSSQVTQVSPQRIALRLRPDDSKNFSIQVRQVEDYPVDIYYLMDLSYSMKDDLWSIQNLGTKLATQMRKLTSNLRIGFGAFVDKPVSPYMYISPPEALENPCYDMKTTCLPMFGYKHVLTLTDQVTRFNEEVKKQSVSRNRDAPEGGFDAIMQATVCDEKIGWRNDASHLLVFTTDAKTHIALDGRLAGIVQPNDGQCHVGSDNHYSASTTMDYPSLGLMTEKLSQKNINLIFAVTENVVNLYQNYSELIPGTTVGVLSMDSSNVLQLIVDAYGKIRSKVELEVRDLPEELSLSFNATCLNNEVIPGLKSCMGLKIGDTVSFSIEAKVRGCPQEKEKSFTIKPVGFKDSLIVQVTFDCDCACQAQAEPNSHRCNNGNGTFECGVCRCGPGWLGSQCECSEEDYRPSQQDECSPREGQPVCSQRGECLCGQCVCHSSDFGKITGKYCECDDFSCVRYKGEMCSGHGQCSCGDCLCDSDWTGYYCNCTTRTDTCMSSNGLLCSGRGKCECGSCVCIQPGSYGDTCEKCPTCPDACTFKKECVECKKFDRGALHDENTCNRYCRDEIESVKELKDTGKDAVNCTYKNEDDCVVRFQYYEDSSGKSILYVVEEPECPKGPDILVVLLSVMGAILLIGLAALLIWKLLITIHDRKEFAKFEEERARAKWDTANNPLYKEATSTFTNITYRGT
The experiment in a line: Purified IIb/IIIa receptor assay (solid phase receptor assay). The conditions noted are these: inhibition of binding of biotinylated human vitronectin (1 nM) to purified receptor; Table I. Put shortly: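 Platelet-purified αIIbβ3 (100 ng/well) coated overnight at 4 °C, then competed 2 h at room temperature against 1 nM biotinylated human vitronectin in TBS with 1.0 mM Ca/Mg/Mn, pH 7.4, 1% BSA; top compound 1.0×10^-4 M. Bound ligand detected by HRP anti-biotin, A450, normalized to maximum binding, four-parameter fit.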

T1 sequence (P06756 31-889 limits assumed): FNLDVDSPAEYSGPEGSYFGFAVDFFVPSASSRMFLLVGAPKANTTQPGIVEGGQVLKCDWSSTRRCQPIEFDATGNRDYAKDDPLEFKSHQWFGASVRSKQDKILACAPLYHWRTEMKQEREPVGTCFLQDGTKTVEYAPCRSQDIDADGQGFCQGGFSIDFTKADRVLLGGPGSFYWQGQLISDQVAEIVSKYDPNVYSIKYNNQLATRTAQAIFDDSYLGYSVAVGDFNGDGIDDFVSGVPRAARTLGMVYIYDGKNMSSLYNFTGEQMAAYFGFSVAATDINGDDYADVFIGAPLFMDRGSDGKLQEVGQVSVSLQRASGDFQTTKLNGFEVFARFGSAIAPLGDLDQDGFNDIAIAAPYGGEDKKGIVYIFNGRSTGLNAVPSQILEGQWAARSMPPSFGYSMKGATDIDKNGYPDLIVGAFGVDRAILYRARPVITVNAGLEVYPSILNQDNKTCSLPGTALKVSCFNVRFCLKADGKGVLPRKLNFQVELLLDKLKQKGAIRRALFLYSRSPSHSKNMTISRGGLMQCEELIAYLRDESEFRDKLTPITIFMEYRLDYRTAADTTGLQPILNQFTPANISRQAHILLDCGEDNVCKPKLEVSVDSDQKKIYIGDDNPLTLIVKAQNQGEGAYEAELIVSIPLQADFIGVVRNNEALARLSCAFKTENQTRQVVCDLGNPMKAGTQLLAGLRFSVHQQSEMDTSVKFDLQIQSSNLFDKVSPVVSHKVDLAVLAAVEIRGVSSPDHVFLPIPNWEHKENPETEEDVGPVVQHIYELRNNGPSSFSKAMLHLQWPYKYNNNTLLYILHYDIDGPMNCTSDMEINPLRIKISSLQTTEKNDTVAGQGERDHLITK
T1 sequence (P06756 891-1048 limits assumed): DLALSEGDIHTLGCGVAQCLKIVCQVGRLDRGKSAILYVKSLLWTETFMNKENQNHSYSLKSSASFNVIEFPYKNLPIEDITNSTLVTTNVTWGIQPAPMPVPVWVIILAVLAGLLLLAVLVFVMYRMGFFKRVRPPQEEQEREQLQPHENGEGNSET
T1 sequence (P05106 27-788): as the sequence (P05106 27-788) above

As usually defined, the IC50 is the point on the concentration scale where inhibition reaches its midpoint. As to `CCc1cc(/C=C/C(=O)O)ccc1NC(=O)c1cccc(NC(=N)N)c1` [Example 7, 3-[4-[[[3-[(aminoiminomethyl)amino]phenyl]carbonyl]amino]-3-ethylphenyl]propenoic acid, trifluoroacetate salt], the concentration for half-maximal inhibition (IC50) amounted to 2.95 nM in assay [1] and 15.1 nM in assay [2].

Take `Cc1cc(/C=C/C(=O)O)cc(C)c1NC(=O)c1cccc(NC2=NCCCN2)c1` [Example 24, 3-[3,5-dimethyl-4-[[[3-[(1,4,5,6-tetrahydropyrimidin-2-yl)amino]phenyl]carbonyl]amino]phenyl]-2E-propenoic acid, bis(trifluoroacetate salt)]: the concentration for half-maximal inhibition (IC50) came out at 4.93 nM in assay [1] and 8270 nM in assay [2].

For the compound `COC(=O)c1cc(NC(=O)c2cccc(NC3=NCCCN3)c2)ccc1/C=C/C(=O)O` [Example 40B, methyl 2-(2-carboxyethenyl)-5-[[[3-[(1,4,5,6-tetrahydropyrimidin-2-yl)amino]phenyl]carbonyl]amino]benzoate, trifluoroacetate salt], the half-maximal inhibitory concentration (IC50) in assay [1] stood at 5.71 nM; in assay [2], 817 nM.

`O=C(O)/C=C/c1ccc(/C=C/c2cccc(NC3=NCCN3)c2)cc1` [Example 99, 3-[4-[2-[3-[(4,5-dihydro-1H-imidazol-2-yl)amino]phenyl]ethenyl]phenyl]propenoic acid, trifluoroacetate salt]: the concentration for half-maximal inhibition (IC50) was 26.5 nM in assay [1] and 722 nM in assay [2].

As for `CCOC(=O)Nc1cc(NC(=O)c2cccc(NC3=NCCCN3)c2)ccc1/C=C/C(=O)O` [Example 46, 3-[2-[(ethoxycarbonyl)amino]-4-[[[3-[(1,4,5,6-tetrahydropyrimidin-2-yl)amino]phenyl]carbonyl]amino]phenyl]propenoic acid, trifluoroacetate salt], the IC50 in assay [1] is 7.19 nM; in assay [2], 2600 nM.

With `O=C(O)/C=C/c1cccc(C(=O)CCc2cccc(NC3=NCCCN3)c2)c1` [Example 93, 3-[3-[1-oxo-3-[3-[(1,4,5,6-tetrahydropyrimidin-2-yl)amino]phenyl]propyl]phenyl]propenoic acid, trifluoroacetate salt], the 50% inhibitory concentration (IC50) stood at 6.1 nM in assay [1] and 5990 nM in assay [2].

For the compound `O=C(O)/C=C/c1cccc(/C=C/C(=O)c2cccc(NC3=NCCCN3)c2)c1` [Example 94, 3-[3-[3-oxo-3-[3-[(1,4,5,6-tetrahydropyrimidin-2-yl)amino]phenyl]-1-propenyl]phenyl]propenoic acid, trifluoroacetate salt], the values for the IC50 in assay [1] and in assay [2] were 11.3 nM and 2710 nM, respectively.

For `Cc1cc(/C=C/C(=O)O)cc(C)c1NC(=O)c1cccc(NC2=NCCCS2)c1` [Example 57, 3-[4-[[[3-[(5,6-dihydro-4H-1,3-thiazin-2-yl)amino]phenyl]carbonyl]amino]3,5-dimethylphenyl]propenoic acid, trifluoroacetate salt], the results for the IC50 in assay [1] and in assay [2] were 25.8 nM and 12800 nM, respectively.

Turning to `O=C(O)/C=C/c1ccc(OCc2cccc(NC3=NCCCN3)c2)cc1` [Example 101, 3-[4-[[3-[(1,4,5,6-tetrahydropyrimidin-2-yl)amino]phenyl]methoxy]phenyl]propenoic acid, trifluoroacetate salt], the IC50 in assay [1] worked out at 42.6 nM; in assay [2], 118 nM.

Turning to `O=C(O)/C=C/c1ccc(NC(=O)c2cccc(NC3=NCCCN3)c2)cc1` [Example 49, 3-[4-[[[3-[(1,4,5,6-tetrahydropyrimidin-2-yl)amino]phenyl]carbonyl]amino]phenyl]propenoic acid, trifluoroacetate salt], the IC50 in assay [1] came to 2.18 nM; in assay [2], 661 nM.

As for `Cc1cc(/C=C/C(=O)O)cc(C)c1NC(=O)c1cccc(NC2=NCCN2)c1` [Example 25, 3-[4-[[[3-[(4,5-dihydroimidazol-2-yl)amino]-phenyl]carbonyl]amino]-3,5-dimethylphenyl]-2E-propenoic acid, trifluoroacetate salt], the half-inhibitory concentration (IC50) in assay [1] was 2.82 nM; in assay [2], 1830 nM.

Turning to `O=C(O)/C=C/c1cccc(CNC(=O)c2cc(NC3=NCCCN3)cc(C(F)(F)F)c2)c1` [Example 69, 3-[3-[[[[3-[(1,4,5,6-tetrahydropyrimidin-2-yl)amino]-5-(trifluoromethyl)phenyl]carbonyl]amino]methyl]phenyl]propenoic acid, dihydrochloride hydrate], the figures for the IC50 in assay [1] and in assay [2] were 1.78 nM and 38900 nM, respectively.

`O=C(O)/C=C/c1cccc(CNC(=O)c2cccc(NC3=NCCCN3)c2)c1` [Example 62, 3-[3-[[[[3-[(1,4,5,6-tetrahydropyrimidin-2-yl)amino]phenyl]carbonyl]amino]methyl]phenyl]propenoic acid, monohydrochloride]: the concentration for half-maximal inhibition (IC50) in assay [1] stood at 2.04 nM; in assay [2], 23300 nM.

For the compound `CCc1cc(/C=C/C(=O)O)ccc1NC(=O)c1cccc(NC2=NCCCN2)c1` [Example 19, 3-[3-ethyl-4-[[[3-[(1,4,5,6-tetrahydropyrimidin-2-yl)amino]phenyl]carbonyl]amino]phenyl]propenoic acid, trifluoroacetate salt], the IC50 in assay [1] came to 0.53 nM; in assay [2], 439 nM.

As to `O=C(O)/C=C/c1cccc(CNC(=O)c2cc(NC3=NCCN3)cc(C(F)(F)F)c2)c1` [Example 71, 3-[3-[[[[3-[(4,5-dihydro-1H-imidazol-2-yl)amino]-5-(trifluoromethyl)phenyl]carbonyl]amino]methyl]phenyl]propenoic acid, monohydrochloride hydrate], the concentration for half-maximal inhibition (IC50) in assay [1] came out at 1.33 nM; in assay [2], 18500 nM.

As for `N=C(N)Nc1cccc(C(=O)/C=C/c2cccc(/C=C/C(=O)O)c2)c1` [Example 89, 3-[3-[3-[3-[(aminoiminomethyl)amino]phenyl]-3-oxopropenyl]phenyl]propenoic acid, trifluoroacetate salt hydrate], the IC50 in assay [1] was determined as 196 nM; in assay [2], 1260 nM.

For the compound `O=C(O)/C=C/c1ccc(/C=C/c2cccc(NC3=NCCCN3)c2)cc1` [Example 98, 3-[4-[2-[3-[(1,4,5,6-tetrahydropyrimidin-2-yl)amino]phenyl]ethenyl]phenyl]propenoic acid, trifluoroacetate salt], the IC50 in assay [1] is 5.08 nM; in assay [2], 222 nM.

For `N=C(N)Nc1cccc(C(=O)NCc2cccc(/C=C/C(=O)O)c2)c1` [Example 2, 3-[3-[[[[3-[(aminoiminomethyl)amino]phenyl]carbonyl]amino]methyl]phenyl]-2-propenoic acid, trifluoroacetate salt], the IC50 in assay [1] amounted to 13 nM; in assay [2] it was 657 nM.

Consider `CC/C(=C\C(=O)O)c1cccc(CNC(=O)c2cccc(NC(=N)N)c2)c1` [Example 74, 3-[3-[[[[3-[(aminoiminomethyl)amino]phenyl]carbonyl]amino]methyl]phenyl]-2E-pentenoic acid, trifluoroacetate salt hydrate], for which the IC50 in assay [1] was 2690 nM; in assay [2], greater than 100000 nM.

For the compound `COc1cc(NC(=O)c2cccc(NC(=N)N)c2)ccc1/C=C/C(=O)O` [Example 31, 3-[4-[[[3-(aminoiminomethyl)amino]phenyl]carbonyl]-amino]-2-methoxyphenyl]propenoic acid, trifluoroacetate salt], the IC50 in assay [1] was found to be 9.66 nM; in assay [2], 69.1 nM.

For the compound `COc1cc(NC(=O)c2cc(NC(=N)N)cc(C(F)(F)F)c2)ccc1/C=C/C(=O)O` [Example 55, 3-[4-[[[3-[(aminoiminomethyl)amino]-5-(trifluoromethyl)phenyl]carbonyl]amino]-2-methoxyphenyl]propenoic acid, trifluoroacetate salt], the IC50 in assay [1] was 3.62 nM; in assay [2] it was 432 nM.

As to `COC(=O)/C=C/c1cccc(CNC(=O)c2cccc(NC(=N)N)c2)c1` [Example 1, methyl 3-[3-[[[[3-[(aminoiminomethyl)-amino]phenyl]carbonyl]amino]methyl]phenyl]-2-propenoate, trifluoroacetate salt], the half-inhibitory concentration (IC50) in assay [1] is 15800 nM; in assay [2], greater than 100000 nM.

As to `COc1ccc(/C=C/C(=O)O)cc1C(=O)/C=C/c1cccc(NC2=NCCN2)c1` [Example 87, 3-[3-[3-[3-[(4,5-dihydro-1H-imidazol-2-yl)amino]phenyl]-1-oxopropenyl]-4-methoxyphenyl]propenoic acid, trifluoroacetate salt], the IC50 was determined as 90.5 nM in assay [1] and 2640 nM in assay [2].

For `N=C(N)Nc1cccc(C(=O)Nc2ccc(/C=C/C(=O)O)c(C(=O)O)c2)c1` [Example 36, 5-[[[3-[(aminoiminomethyl)amino]phenyl]carbonyl]amino]-2-(2-carboxyethenyl)benzoic acid, trifluoroacetate salt], the IC50 stood at 1.23 nM in assay [1] and 9.06 nM in assay [2].

For the compound `N=C(N)Nc1cccc(C(O)CCc2cccc(/C=C/C(=O)O)c2)c1` (racemic) [Example 96, 3-[3-[3-[3-[(aminoiminomethyl)amino]phenyl]-3-hydroxypropyl]phenyl]propenoic acid, trifluoroacetate salt], the half-inhibitory concentration (IC50) in assay [1] was 207 nM; in assay [2], 15600 nM.

`O=C(O)/C=C/c1cccc(CNC(=O)c2cccc(NC3=NCCN3)c2)c1` [Example 67, 3-[3-[[[[3-[(4,5-dihydro-1H-imidazol-2-yl)amino]phenyl]carbonyl]amino]methyl]phenyl]propenoic acid, monohydrochloride hydrate]: the IC50 in assay [1] was 2.27 nM; in assay [2], 12000 nM.
